In patent US9617267B2, “Compounds and methods for kinase modulation, and indications therefor” (Plexxikon Inc., priority 2009, dated 2017):
pIC50: −log10 of the molar value. Like-named read-outs stand apart in the source and are kept apart here.

What was measured:
[1] = target: B-Raf (Homo sapiens (Human), UniProt P15056); assay: B-Raf kinase activity biochemical assay (AlphaScreen, biotin-MEK1 phosphorylation); settings: B-Raf
In short: (§1)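 Compounds from a 0.1 mM DMSO stock were tested at 8 serially diluted points. Kinase reactions with 100 μM ATP (final) ran 45 min at room temperature, then were stopped with EDTA buffer containing anti-phospho-MEK1/2 antibody plus streptavidin donor and protein A acceptor beads.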

[2] = test system: B-Raf; assay: as above; settings: for Biochemical activity ratio B/V600E: ratio of IC50 B-Raf / B-Raf V600E; for Biochemical activity ratio B/C: ratio of IC50 B-Raf / c-Raf-1
In short: as §1

[3] = target: B-Raf V600E (Homo sapiens (Human), UniProt P15056, V600E); assay: B-Raf V600E kinase activity biochemical assay (AlphaScreen, biotin-MEK1 phosphorylation); settings: for IC50: B-Raf V600E; for Biochemical activity ratio V600E/C: ratio of IC50 B-Raf V600E / c-Raf-1
B-Raf V600E, sequence (P15056 whole entry V600E): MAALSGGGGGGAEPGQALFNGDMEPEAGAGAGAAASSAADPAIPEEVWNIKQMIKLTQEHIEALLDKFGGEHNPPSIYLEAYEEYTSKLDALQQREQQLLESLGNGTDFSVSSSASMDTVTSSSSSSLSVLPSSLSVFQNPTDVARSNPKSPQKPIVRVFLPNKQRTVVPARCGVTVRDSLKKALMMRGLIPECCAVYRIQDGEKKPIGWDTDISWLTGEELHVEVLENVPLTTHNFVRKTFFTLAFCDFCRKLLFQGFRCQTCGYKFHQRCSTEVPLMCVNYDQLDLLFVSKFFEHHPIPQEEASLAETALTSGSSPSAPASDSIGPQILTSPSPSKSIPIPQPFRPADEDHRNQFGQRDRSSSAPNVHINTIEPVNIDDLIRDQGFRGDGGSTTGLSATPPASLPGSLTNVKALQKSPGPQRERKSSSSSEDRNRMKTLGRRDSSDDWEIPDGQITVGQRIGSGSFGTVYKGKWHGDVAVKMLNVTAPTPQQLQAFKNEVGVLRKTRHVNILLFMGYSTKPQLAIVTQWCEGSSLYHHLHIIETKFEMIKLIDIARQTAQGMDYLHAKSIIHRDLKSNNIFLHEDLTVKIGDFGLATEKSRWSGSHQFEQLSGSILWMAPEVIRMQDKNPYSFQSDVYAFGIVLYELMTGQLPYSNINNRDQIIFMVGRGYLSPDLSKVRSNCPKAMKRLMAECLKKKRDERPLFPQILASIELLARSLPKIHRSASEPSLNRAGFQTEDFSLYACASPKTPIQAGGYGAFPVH
In short: as §1

[4] = target: c-Raf-1 (Homo sapiens, UniProt P04049); assay: c-Raf-1 kinase activity biochemical assay (AlphaScreen, biotin-MEK1 phosphorylation)
c-Raf-1, sequence (P04049 whole entry, looked up): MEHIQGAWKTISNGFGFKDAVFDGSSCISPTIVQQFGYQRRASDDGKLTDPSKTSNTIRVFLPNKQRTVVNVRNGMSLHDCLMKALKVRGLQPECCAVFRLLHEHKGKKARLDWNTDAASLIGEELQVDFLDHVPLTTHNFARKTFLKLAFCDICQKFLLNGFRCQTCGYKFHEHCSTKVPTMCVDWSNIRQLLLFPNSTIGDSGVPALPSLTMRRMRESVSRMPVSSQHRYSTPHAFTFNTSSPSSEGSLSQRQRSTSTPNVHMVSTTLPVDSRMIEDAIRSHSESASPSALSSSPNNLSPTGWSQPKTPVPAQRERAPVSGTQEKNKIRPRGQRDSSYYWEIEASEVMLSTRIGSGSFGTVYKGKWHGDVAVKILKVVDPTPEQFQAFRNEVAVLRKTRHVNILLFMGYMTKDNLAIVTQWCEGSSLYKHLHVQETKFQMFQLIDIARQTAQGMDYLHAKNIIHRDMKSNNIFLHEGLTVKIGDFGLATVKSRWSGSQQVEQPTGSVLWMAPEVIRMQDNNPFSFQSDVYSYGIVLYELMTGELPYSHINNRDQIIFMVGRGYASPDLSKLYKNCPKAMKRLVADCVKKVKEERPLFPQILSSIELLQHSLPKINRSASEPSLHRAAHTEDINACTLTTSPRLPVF
In short: as §1

[5] = Relative solubility by turbidity threshold concentration in aqueous buffers (pH 1.5, 4.5, 6.8, 7.4); assay type: physicochemical; settings: for turbidity threshold (L, M, H) 1.4: pH 1.4 [sic] (method: SGF pH 1.5); for turbidity threshold (L, M, H) 4.5: pH 4.5 (SIF); for turbidity threshold (L, M, H) 6.8: pH 6.8 (SIF); for turbidity threshold (L, M, H) 7.4: pH 7.4 (HEPES)
In short: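 Solubility class (high >250 μM, moderate 31.3–250 μM, low <31.3 μM) comes from the concentration where absorbance reaches a 0.01 threshold, averaged across 490/535/650 nm. Samples were compound dilutions from DMSO stock, 1 μL into 99 μL buffer at pH 1.5, 4.5, 6.8 or 7.4.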

[6] = target: CYP1A2 (Homo sapiens (Human), UniProt P05177); assay: CYP enzyme inhibition, fluorescent substrate (CEC)
CYP1A2, sequence (P05177 whole entry): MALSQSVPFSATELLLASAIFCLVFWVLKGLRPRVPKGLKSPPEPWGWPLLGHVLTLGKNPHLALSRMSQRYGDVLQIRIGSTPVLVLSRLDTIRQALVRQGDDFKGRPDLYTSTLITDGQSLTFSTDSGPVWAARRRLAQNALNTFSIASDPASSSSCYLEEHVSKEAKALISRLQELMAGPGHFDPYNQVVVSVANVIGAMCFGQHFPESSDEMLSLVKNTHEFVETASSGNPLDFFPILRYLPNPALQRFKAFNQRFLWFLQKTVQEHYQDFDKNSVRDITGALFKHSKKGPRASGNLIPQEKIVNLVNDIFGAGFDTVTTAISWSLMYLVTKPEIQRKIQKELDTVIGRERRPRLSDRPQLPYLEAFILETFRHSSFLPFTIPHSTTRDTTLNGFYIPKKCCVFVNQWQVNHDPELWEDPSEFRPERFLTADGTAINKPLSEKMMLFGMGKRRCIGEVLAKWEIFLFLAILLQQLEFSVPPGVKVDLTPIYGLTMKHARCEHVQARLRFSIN
In short: (§2)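 IC50 derived from loss of fluorescent metabolite across a 10-point 1:1 dilution series. CYP2D6: 1.5 pmol enzyme, 1.5 μM AMMC, 30 min at 37 °C, 409/530 nm; CYP1A2: 0.5 pmol, 5 μM CEC, 15 min, 409/460 nm. Compounds pre-incubated 10 min in NADPH-regenerating mix.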

[7] = target: CYP2C19 (Homo sapiens (Human), UniProt P33261); assay: CYP enzyme inhibition, fluorescent substrate (CEC); settings: read-out: Cyp IC50 2C19; CYP2C19, substrate CEC
CYP2C19, sequence (P33261 whole entry): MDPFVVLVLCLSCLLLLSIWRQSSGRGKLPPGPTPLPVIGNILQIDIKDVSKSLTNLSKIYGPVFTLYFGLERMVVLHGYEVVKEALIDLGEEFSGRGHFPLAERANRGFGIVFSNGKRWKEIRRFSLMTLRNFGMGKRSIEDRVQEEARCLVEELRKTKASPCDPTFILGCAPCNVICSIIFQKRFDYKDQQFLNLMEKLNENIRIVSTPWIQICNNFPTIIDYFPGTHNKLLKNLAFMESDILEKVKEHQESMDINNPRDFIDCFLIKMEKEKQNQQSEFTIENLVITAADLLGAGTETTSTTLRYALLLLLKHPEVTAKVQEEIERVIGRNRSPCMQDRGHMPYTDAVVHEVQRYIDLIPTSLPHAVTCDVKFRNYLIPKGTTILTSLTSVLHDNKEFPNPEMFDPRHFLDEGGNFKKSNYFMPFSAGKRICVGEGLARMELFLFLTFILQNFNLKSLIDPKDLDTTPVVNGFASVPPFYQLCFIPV
In short: (§3)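 First, 100 mM DMSO stocks are diluted into acetonitrile, then twofold through co-factor mix for 10 points. Next, mixtures are preincubated 10 min at 37 °C.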

[8] = target: CYP2C9 (Homo sapiens (Human), UniProt P11712); assay: CYP enzyme inhibition, fluorescent substrate (MFC)
CYP2C9, sequence (P11712 whole entry): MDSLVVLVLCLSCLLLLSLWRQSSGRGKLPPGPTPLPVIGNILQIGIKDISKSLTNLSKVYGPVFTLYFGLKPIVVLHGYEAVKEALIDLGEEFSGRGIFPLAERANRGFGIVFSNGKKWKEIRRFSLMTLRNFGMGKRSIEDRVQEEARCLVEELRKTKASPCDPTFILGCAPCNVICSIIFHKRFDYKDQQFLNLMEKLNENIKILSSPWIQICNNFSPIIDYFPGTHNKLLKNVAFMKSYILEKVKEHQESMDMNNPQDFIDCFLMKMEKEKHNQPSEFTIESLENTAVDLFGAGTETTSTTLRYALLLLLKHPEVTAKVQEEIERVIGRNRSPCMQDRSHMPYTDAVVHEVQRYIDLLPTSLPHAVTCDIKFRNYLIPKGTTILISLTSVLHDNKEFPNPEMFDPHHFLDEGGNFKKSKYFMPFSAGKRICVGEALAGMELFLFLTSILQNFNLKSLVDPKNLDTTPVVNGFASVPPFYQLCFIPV
In short: as §3

[9] = target: CYP2D6 (Homo sapiens (Human), UniProt P10635); assay: CYP enzyme inhibition, fluorescent substrate (AMMC); assay type: in vitro ADME; settings: read-out: Cyp IC50 2D6
CYP2D6, sequence (P10635 whole entry): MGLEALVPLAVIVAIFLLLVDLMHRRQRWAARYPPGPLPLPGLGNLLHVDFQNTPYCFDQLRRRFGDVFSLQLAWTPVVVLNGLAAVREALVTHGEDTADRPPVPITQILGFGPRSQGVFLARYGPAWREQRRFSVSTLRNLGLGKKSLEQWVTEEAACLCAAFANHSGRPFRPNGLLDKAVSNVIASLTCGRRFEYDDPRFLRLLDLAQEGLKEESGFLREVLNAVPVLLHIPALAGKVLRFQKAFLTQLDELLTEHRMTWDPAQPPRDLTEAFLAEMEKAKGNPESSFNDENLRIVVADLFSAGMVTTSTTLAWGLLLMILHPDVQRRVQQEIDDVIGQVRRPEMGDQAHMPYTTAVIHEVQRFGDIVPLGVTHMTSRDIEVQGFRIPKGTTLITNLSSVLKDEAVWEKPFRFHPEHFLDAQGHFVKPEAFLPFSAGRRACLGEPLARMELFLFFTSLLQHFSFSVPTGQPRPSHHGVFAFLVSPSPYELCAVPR
In short: as §2

[10] = target: CYP3A4(BFC) (Homo sapiens (Human), UniProt P08684); assay: CYP enzyme inhibition, fluorescent substrate BFC
CYP3A4(BFC), sequence (P08684 whole entry): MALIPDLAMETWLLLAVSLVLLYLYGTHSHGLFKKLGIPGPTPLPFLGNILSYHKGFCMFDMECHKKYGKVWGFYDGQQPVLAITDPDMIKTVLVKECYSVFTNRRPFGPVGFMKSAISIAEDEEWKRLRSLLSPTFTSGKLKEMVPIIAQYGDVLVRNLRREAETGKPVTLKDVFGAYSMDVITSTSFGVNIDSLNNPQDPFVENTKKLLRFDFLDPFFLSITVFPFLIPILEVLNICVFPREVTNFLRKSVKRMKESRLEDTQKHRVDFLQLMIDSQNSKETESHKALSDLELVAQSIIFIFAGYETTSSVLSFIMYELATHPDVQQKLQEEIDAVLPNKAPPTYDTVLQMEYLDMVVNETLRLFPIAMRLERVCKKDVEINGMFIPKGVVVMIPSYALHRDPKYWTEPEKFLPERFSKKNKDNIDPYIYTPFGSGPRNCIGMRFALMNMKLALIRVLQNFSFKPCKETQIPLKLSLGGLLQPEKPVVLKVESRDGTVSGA
In short: as §3

[11] = target: CYP3A4(BQ) (Homo sapiens (Human), UniProt P08684); assay: CYP enzyme inhibition, fluorescent substrate BQ; settings: read-out: Cyp IC50 3A4(BQ); CYP3A4, substrate BQ
CYP3A4(BQ), sequence (P08684 whole entry): as above
In short: as §3

[12] = read-out: Cyp IC50 2C9, CYP2C9, substrate MFC
[13] = read-out: Cyp IC50 3A4(BFC), CYP3A4, substrate BFC
[14] = read-out: Cyp IC50 1A2, CYP1A2, substrate CEC

B-Raf (Homo sapiens (Human), UniProt P15056), sequence (P15056 whole entry): as the sequence (P15056 whole entry V600E) above, with E600V counted along it

SMILES | IC50 [1] | Biochemical activity ratio B/V600E [2] | Biochemical activity ratio B/C [2] | IC50 [3] | Biochemical activity ratio V600E/C [3] | IC50 [4] | turbidity threshold (L, M, H) 1.4 [5] | turbidity threshold (L, M, H) 4.5 [5] | turbidity threshold (L, M, H) 6.8 [5] | turbidity threshold (L, M, H) 7.4 [5] | pIC50 ([6]; human, 15 min) | pIC50 [7] | pIC50 [8, 12] | pIC50 [9] | pIC50 [10, 13] | pIC50 [11] | pIC50 [6, 14] | pIC50 [8] | pIC50 [10]
CC(C)Nc1ncnc2[nH]cc(C(=O)c3c(F)ccc(NS(=O)(=O)c4ccc(C(C)C)cc4)c3F)c12 [P-1044, N-[2,4-Difluoro-3-(4-isopropylamino-7H-pyrrolo[2,3-d]pyrimidine-5-carbonyl)-phenyl]-4-isopropyl-benzenesulfonamide] | < 0.1 µM | 0.1-10 | >10 | > 0.1 µM | >10 | < 0.1 µM | M (moderate solubility if the threshold concentration is 31.3 μM to 250 μM) | M (moderate solubility if the threshold concentration is 31.3 μM to 250 μM) | M (moderate solubility if the threshold concentration is 31.3 μM to 250 μM) | M (moderate solubility if the threshold concentration is 31.3 μM to 250 μM) | < 5.00 | > 5.30 | < 5.00 | < 5.00 | < 5.00 | < 5.00 |  |  | 
Cc1cc(C)cc(S(=O)(=O)Nc2ccc(F)c(C(=O)c3c[nH]c4ncnc(NC(C)C)c34)c2F)c1 [P-1045, N-[2,4-Difluoro-3-(4-isopropylamino-7H-pyrrolo[2,3-d]pyrimidine-5-carbonyl)-phenyl]-3,5-dimethyl-benzenesulfonamide] | > 0.1 µM | 0.1-10 | >10 | < 0.1 µM | 0.1-10 | < 0.1 µM | M (moderate solubility if the threshold concentration is 31.3 μM to 250 μM) | L (low solubility if the threshold concentration is <31.3 μM) | L (low solubility if the threshold concentration is <31.3 μM) | L (low solubility if the threshold concentration is <31.3 μM) |  | > 5.30 |  | < 5.00 |  | < 5.00 | < 5.00 | 5.00 to 5.30 | 5.00 to 5.30
CCCc1ccc(S(=O)(=O)Nc2ccc(F)c(C(=O)c3c[nH]c4ncnc(NC5CCOCC5)c34)c2F)cc1 [P-1046, N-{2,4-Difluoro-3-[4-(tetrahydro-pyran-4-ylamino)-7H-pyrrolo[2,3-d]pyrimidine-5-carbonyl]-phenyl}-4-propyl-benzenesulfonamide] | < 0.1 µM | 0.1-10 | >10 | > 0.1 µM | >10 | < 0.1 µM | M (moderate solubility if the threshold concentration is 31.3 μM to 250 μM) | L (low solubility if the threshold concentration is <31.3 μM) | L (low solubility if the threshold concentration is <31.3 μM) | L (low solubility if the threshold concentration is <31.3 μM) | < 5.00 | < 5.00 | < 5.00 | < 5.00 | < 5.00 | < 5.00 |  |  | 
CCCS(=O)(=O)Nc1ccc(F)c(C(=O)c2c[nH]c3ncnc(NC4CCOCC4)c23)c1F [P-1047, Propane-1-sulfonic acid {2,4-difluoro-3-[4-(tetrahydro-pyran-4-ylamino)-7H-pyrrolo[2,3-d]pyrimidine-5-carbonyl]-phenyl}-amide] | < 0.1 µM | 0.1-10 | >10 | < 0.1 µM | >10 | < 0.1 µM | M (moderate solubility if the threshold concentration is 31.3 μM to 250 μM) | L (low solubility if the threshold concentration is <31.3 μM) | L (low solubility if the threshold concentration is <31.3 μM) | L (low solubility if the threshold concentration is <31.3 μM) |  | < 5.00 | < 5.00 | < 5.00 | < 5.00 | < 5.00 | < 5.00 |  | 
CN(C)c1ncnc2[nH]cc(C(=O)c3c(F)ccc(NS(=O)(=O)c4ccc(C(F)(F)F)cc4)c3F)c12 [P-1049, N-[3-(4-Dimethylamino-7H-pyrrolo[2,3-d]pyrimidine-5-carbonyl)-2,4-difluoro-phenyl]-4-trifluoromethyl-benzenesulfonamide] | > 0.1 µM | 0.1-10 | >10 | > 0.1 µM | >10 | > 0.1 µM | M (moderate solubility if the threshold concentration is 31.3 μM to 250 μM) | M (moderate solubility if the threshold concentration is 31.3 μM to 250 μM) | M (moderate solubility if the threshold concentration is 31.3 μM to 250 μM) | M (moderate solubility if the threshold concentration is 31.3 μM to 250 μM) | < 5.00 | < 5.00 | < 5.00 | < 5.00 | < 5.00 | < 5.00 |  |  | 
O=C(c1c(F)ccc(NS(=O)(=O)c2ccc(C(F)(F)F)cc2)c1F)c1c[nH]c2ncnc(NC3COC3)c12 [P-1050, N-{2,4-Difluoro-3-[4-(oxetan-3-ylamino)-7H-pyrrolo[2,3-d]pyrimidine-5-carbonyl]-phenyl}-4-trifluoromethyl-benzenesulfonamide] | < 0.1 µM | 0.1-10 | >10 | < 0.1 µM | >10 | < 0.1 µM | H (high solubility if the threshold concentration is >250 μm) | M (moderate solubility if the threshold concentration is 31.3 μM to 250 μM) | M (moderate solubility if the threshold concentration is 31.3 μM to 250 μM) | M (moderate solubility if the threshold concentration is 31.3 μM to 250 μM) |  | < 5.00 | < 5.00 | < 5.00 | < 5.00 | < 5.00 | < 5.00 |  | 
